One assay deals with PMN. As to conditions: similar potencies for both; cited from earlier work.
Assay [1] relates to LM2 and CN34LM1 lung metastatic human breast cancer cell lines. Nature of the assay: Preclinical trial of AC chemotherapy and CXCR2 antagonist in orthotopic lung metastatic breast cancer xenografts. In kind it is in vivo, mice. Here is the method: Data represent average expression±SEM. n=10-13 mice per group. P values were determined by Student's t-test. *p=0.02, **p=0.007.
Data are average foci per field of view (FOV)±SEM. n=5-10 mice per group. Whiskers represent minimum and maximum values. P values were determined by two-tailed Wilcoxon rank-sum test.
Tumor vessel characteristics and lung metastatic foci size and number were quantified using Metamorph software (Molecular Devices) as previously described (DeNardo et al., 2009; Gupta et al., 2007). In brief, 10 random images at 20× magnification were taken per tumor section stained with CD34, MECA32 or Von Willebrand factor by immunohistochemistry. Images were thresholded, stained area was calculated by counting objects per field and vessel characteristics were analyzed using Metamorph measurement module. For quantitating lung metastatic foci area and number, 8-12 random images at 20× magnification were taken per lung section stained with vimentin by immunohistochemistry. A minimum of 5 sections was analyzed per animal across different depths of the tissue. For quantitation, images were thresholded and number of metastatic foci determined. Metastatic foci was considered if they contained more than 5 cells. Foci were counted and analyzed using Metamorph measurement module. […]

With `C[C@@H](C(N)=O)c1ccc(OS(=O)(=O)C(F)(F)F)cc1` [4-[(1R)-2-amino-1-methyl-2-oxoethyl]phenyl trifluoromethane sulfonate], the “CXCL8- and CXCL1-mediated PMN chemotaxis” value with PMN is reported as “inhibit”.
On to `N#Cc1ccc(NC(=O)Nc2ccccc2Br)c2n[nH]nc12` [CXCR2 inhibitor], for which the lung metastatic burden result in assay [1] (CXCR2 inhibitor combined with AC chemotherapy) is reported as “markedly reduced”. Moreover, in assay [1] (CXCR2 inhibitor/chemotherapy treatment), the “S100A9 expressing cells (immunostaining)” value is recorded as “significant reduction”.
